Assay results published in ChEMBL document CHEMBL1201862, “PubChem BioAssay data set” (2004).
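Cultured in 96-well plates, cells were exposed to test compound for 48 hours across five concentrations. GI50 = concentration required for 50% inhibition of growth.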 Calls of active or inactive are those of the source. No stated cut-off is given here; in the data, active = GI50 up to about 1.1 µM and inactive = higher.

Columns and labels:
Experiment in all cases: NCI anticancer screen, dose series, 48 h
COLO 205 = system: COLO 205
EKVX = system: EKVX
IGROV-1 = system: IGROV-1
KM12 = system: KM12
MOLT-4 = system: MOLT-4
OVCAR-3 = system: OVCAR-3
OVCAR-8 = system: OVCAR-8
RPMI-8226 = system: RPMI-8226
RXF 393 = system: RXF 393
SF-268 = system: SF-268
SF-539 = system: SF-539
SK-OV-3 = system: SK-OV-3
SW-620 = system: SW-620
A498 = system: A498
CAKI-1 = system: CAKI-1
OVCAR-4 = system: OVCAR-4
SN12C = system: SN12C

Row | Compound | GI50 (COLO 205) | GI50 (EKVX) | GI50 (IGROV-1) | GI50 (KM12) | GI50 (MOLT-4) | GI50 (OVCAR-3) | GI50 (OVCAR-8) | GI50 (RPMI-8226) | GI50 (RXF 393) | GI50 (SF-268) | GI50 (SF-539) | GI50 (SK-OV-3) | GI50 (SW-620) | GI50 (A498) | GI50 (CAKI-1) | GI50 (OVCAR-4) | GI50 (SN12C)
1 | C/C(CC(=O)Nc1cccc([N+](=O)[O-])c1)=N\NC(=O)CC#N | > 100 µM (inactive) | > 100 µM (inactive) | > 100 µM (inactive) | > 100 µM (inactive) | > 100 µM (inactive) | > 100 µM (inactive) | > 100 µM (inactive) | > 100 µM (inactive) | > 100 µM (inactive) | > 100 µM (inactive) | > 100 µM (inactive) | > 100 µM (inactive) | > 100 µM (inactive) | – | – | – | –
2 | O=C(Cc1nc2ccc(C(=O)c3ccccc3)cc2nc1O)C(=O)Nc1ccc(C(F)(F)F)cc1[N+](=O)[O-] | 45 µM (inactive) | 11.7 µM (inactive) | > 100 µM (inactive) | 59 µM (inactive) | 22.8 µM (inactive) | 38.7 µM (inactive) | 69 µM (inactive) | 42.5 µM (inactive) | – | 65 µM (inactive) | 53.3 µM (inactive) | > 100 µM (inactive) | 47.4 µM (inactive) | 90.4 µM (inactive) | 30.8 µM (inactive) | > 100 µM (inactive) | > 100 µM (inactive)
3 | O=C1CCCCCCCCCCC1CN1CCCCC1 (stereo not drawn) | 41.4 µM (inactive) | > 100 µM (inactive) | 74.3 µM (inactive) | 71.1 µM (inactive) | 57 µM (inactive) | > 100 µM (inactive) | > 100 µM (inactive) | > 100 µM (inactive) | – | > 100 µM (inactive) | – | – | > 100 µM (inactive) | > 100 µM (inactive) | – | > 100 µM (inactive) | > 100 µM (inactive)
4 | COC1(OC)CC2C(=O)N(Cc3ccccc3)C1C(S(=O)(=O)c1ccccc1)C2C(C)S(=O)(=O)c1ccccc1 (stereo not drawn) | > 100 µM (inactive) | 85.5 µM (inactive) | > 100 µM (inactive) | > 100 µM (inactive) | > 100 µM (inactive) | > 100 µM (inactive) | > 100 µM (inactive) | > 100 µM (inactive) | > 100 µM (inactive) | > 100 µM (inactive) | > 100 µM (inactive) | > 100 µM (inactive) | > 100 µM (inactive) | – | > 100 µM (inactive) | > 100 µM (inactive) | > 100 µM (inactive)
5 | CC(=O)Oc1cc(Cl)c(OC(C)=O)c2c(OC(C)=O)c(C)c(O[Si](C)(C)C(C)(C)C)cc12 | 15.1 µM (inactive) | 18.7 µM (inactive) | 3.64 µM (inactive) | 12.8 µM (inactive) | 3.31 µM (inactive) | 15.6 µM (inactive) | 2.52 µM (inactive) | 2.93 µM (inactive) | 3.28 µM (inactive) | 11.5 µM (inactive) | 14.5 µM (inactive) | – | 2.8 µM (inactive) | 2.09 µM (inactive) | 16 µM (inactive) | 13.2 µM (inactive) | 11.1 µM (inactive)
6 | CN(c1ccccc1)c1nc(=[N+]2CCCC2)ss1.[O-][Cl+3]([O-])([O-])[O-] | 11.1 µM (inactive) | > 100 µM (inactive) | > 100 µM (inactive) | > 100 µM (inactive) | > 100 µM (inactive) | > 100 µM (inactive) | > 100 µM (inactive) | > 100 µM (inactive) | 3.03 µM (inactive) | > 100 µM (inactive) | – | > 100 µM (inactive) | > 100 µM (inactive) | > 100 µM (inactive) | > 100 µM (inactive) | > 100 µM (inactive) | > 100 µM (inactive)
7 | Cc1ccccc1NC(=O)C1C(=O)N(c2ccccc2C)C(=O)/C1=N\NC(N)=S (stereo not drawn) | – | > 100 µM (inactive) | > 100 µM (inactive) | > 100 µM (inactive) | > 100 µM (inactive) | > 100 µM (inactive) | – | > 100 µM (inactive) | – | > 100 µM (inactive) | > 100 µM (inactive) | > 100 µM (inactive) | > 100 µM (inactive) | – | > 100 µM (inactive) | – | > 100 µM (inactive)
8 | Clc1ccc(Cl)c2[s+]snc12 | > 43.1 µM (inactive) | > 100 µM (inactive) | > 100 µM (inactive) | > 67.5 µM (inactive) | > 79.6 µM (inactive) | > 63.5 µM (inactive) | 40.3 µM (inactive) | > 48.6 µM (inactive) | – | 46.8 µM (inactive) | 46 µM (inactive) | > 100 µM (inactive) | 23.6 µM (inactive) | > 100 µM (inactive) | > 100 µM (inactive) | > 100 µM (inactive) | > 79.3 µM (inactive)
9 | CC(=O)c1c2c(cc3c1CC1(C3)Cc3cc4c(c(C(=O)O)c3C1)CCC4)CCC2 (stereo not drawn) | 24.7 µM (inactive) | – | 50.7 µM (inactive) | 44.2 µM (inactive) | 25.9 µM (inactive) | 19.7 µM (inactive) | 41 µM (inactive) | – | 45.5 µM (inactive) | 36.8 µM (inactive) | 19.2 µM (inactive) | – | 48.6 µM (inactive) | – | 36.9 µM (inactive) | 49.1 µM (inactive) | 31.4 µM (inactive)
10 | COC(=O)C1(c2ccc(OC)cc2)NC(c2ccccc2)C2C(=O)N(c3ccc(OC)cc3)C(=O)C21 (stereo not drawn) | > 100 µM (inactive) | > 100 µM (inactive) | > 100 µM (inactive) | > 100 µM (inactive) | > 100 µM (inactive) | – | > 100 µM (inactive) | > 100 µM (inactive) | > 100 µM (inactive) | > 100 µM (inactive) | > 100 µM (inactive) | > 100 µM (inactive) | > 100 µM (inactive) | > 100 µM (inactive) | > 100 µM (inactive) | > 100 µM (inactive) | > 100 µM (inactive)
11 | CN(C)[C@@H]1C(O)=C(C(=O)NCN2CCN(C(=N)NC(=N)N)CC2)C(=O)[C@@]2(O)C(O)=C3C(=O)c4c(O)cccc4[C@@](C)(O)[C@H]3C[C@@H]12 | 0.0798 µM (active) | 0.286 µM (active) | 0.207 µM (active) | 0.368 µM (active) | 0.0597 µM (active) | 0.287 µM (active) | 0.273 µM (active) | 0.0315 µM (active) | 0.12 µM (active) | 0.518 µM (active) | 0.216 µM (active) | 1.29 µM (inactive) | 0.16 µM (active) | 1.14 µM (inactive) | 0.274 µM (active) | – | 0.338 µM (active)
12 | N#CC1=C(c2ccccc2)NNC(c2ccc(Cl)cc2)CC1=O (stereo not drawn) | – | – | – | 38 µM (inactive) | 58.7 µM (inactive) | – | – | 29.9 µM (inactive) | 54.2 µM (inactive) | 50.8 µM (inactive) | – | 44.4 µM (inactive) | 33.5 µM (inactive) | 68.7 µM (inactive) | 40.6 µM (inactive) | 42.9 µM (inactive) | 45.5 µM (inactive)
13 | CN(C)C(=N)NC(=S)N(C)C | – | > 100 µM (inactive) | > 100 µM (inactive) | > 100 µM (inactive) | > 100 µM (inactive) | – | > 100 µM (inactive) | > 100 µM (inactive) | > 100 µM (inactive) | > 100 µM (inactive) | > 100 µM (inactive) | > 100 µM (inactive) | > 100 µM (inactive) | > 100 µM (inactive) | > 100 µM (inactive) | > 100 µM (inactive) | > 100 µM (inactive)
14 | C/C(=N\O)C(CN(C)C)C(c1ccccc1)c1c(O)c2ccccc2oc1=O (stereo not drawn) | > 100 µM (inactive) | > 100 µM (inactive) | > 100 µM (inactive) | > 100 µM (inactive) | > 100 µM (inactive) | – | > 100 µM (inactive) | > 100 µM (inactive) | > 100 µM (inactive) | > 100 µM (inactive) | > 100 µM (inactive) | > 100 µM (inactive) | > 100 µM (inactive) | > 100 µM (inactive) | > 100 µM (inactive) | > 100 µM (inactive) | > 100 µM (inactive)
15 | CCOC(=O)[C@H]1Nc2ccc(C)cc2C2c3ccccc3CC21 (stereo partly drawn) | > 100 µM (inactive) | > 100 µM (inactive) | > 100 µM (inactive) | > 100 µM (inactive) | > 100 µM (inactive) | > 100 µM (inactive) | > 100 µM (inactive) | > 100 µM (inactive) | 31.6 µM (inactive) | > 100 µM (inactive) | > 100 µM (inactive) | – | > 100 µM (inactive) | 33.4 µM (inactive) | > 100 µM (inactive) | > 100 µM (inactive) | > 100 µM (inactive)
16 | COc1cccc(OC)c1C(=O)OCc1ccccc1 | > 100 µM (inactive) | > 100 µM (inactive) | > 100 µM (inactive) | > 100 µM (inactive) | > 100 µM (inactive) | > 100 µM (inactive) | > 100 µM (inactive) | > 100 µM (inactive) | > 100 µM (inactive) | > 100 µM (inactive) | > 100 µM (inactive) | > 100 µM (inactive) | > 100 µM (inactive) | – | > 100 µM (inactive) | > 100 µM (inactive) | > 100 µM (inactive)
17 | c1ccc2c(c1)[nH]c1c2ncc2[nH]c3ccccc3c21 | 2.45 µM (inactive) | 12.9 µM (inactive) | 5.19 µM (inactive) | 3.06 µM (inactive) | 3.05 µM (inactive) | 2.54 µM (inactive) | 3.23 µM (inactive) | 2.26 µM (inactive) | – | 6.32 µM (inactive) | 2.61 µM (inactive) | 14.1 µM (inactive) | 2.9 µM (inactive) | 2.72 µM (inactive) | 3.73 µM (inactive) | 1.9 µM (inactive) | 3.51 µM (inactive)
18 | O=C1N[C@@H]2C(=C[C@H](O)[C@@H](O)[C@H]2O)c2cc3c(c(O)c21)OCO3 [NARCICLASINE] | – | 0.045 µM (active) | 0.045 µM (active) | 0.045 µM (active) | 0.045 µM (active) | 0.045 µM (active) | 0.045 µM (active) | 0.045 µM (active) | – | 0.045 µM (active) | 0.045 µM (active) | 0.045 µM (active) | 0.045 µM (active) | 0.045 µM (active) | 0.045 µM (active) | 0.142 µM (active) | 0.045 µM (active)
